According to US11951094B2, “TLR2 modulator compounds, pharmaceutical compositions and uses thereof” (Axial Therapeutics, Inc., priority 2020, dated 2024):
Structures can show the parent of a compound that is named as a salt.

Biological target: TLR2 (Homo sapiens, UniProt O60603)
Experiment: TLR2 agonist screening assay, HEK-Blue TLR2 reporter cell line (NF-kB-driven SEAP, absorbance at 600 nm)
Format: cell-based
Set-up: host or cells: HEK-293 (HEK-Blue TLR2 reporter cell line)
Conditions: HEK-Blue TLR2 reporter cells, agonist mode
Procedure, shortened: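 HEK-293 cells expressing TLR2 with NF-kB-driven SEAP were plated at 40,000 per well. After 16-24 h, they were treated overnight with diluted agonists in detection medium (1% DMSO final). Absorbance at 600 nm was read, and EC50 values were fitted.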

Chain of TLR2 (O60603 21-784): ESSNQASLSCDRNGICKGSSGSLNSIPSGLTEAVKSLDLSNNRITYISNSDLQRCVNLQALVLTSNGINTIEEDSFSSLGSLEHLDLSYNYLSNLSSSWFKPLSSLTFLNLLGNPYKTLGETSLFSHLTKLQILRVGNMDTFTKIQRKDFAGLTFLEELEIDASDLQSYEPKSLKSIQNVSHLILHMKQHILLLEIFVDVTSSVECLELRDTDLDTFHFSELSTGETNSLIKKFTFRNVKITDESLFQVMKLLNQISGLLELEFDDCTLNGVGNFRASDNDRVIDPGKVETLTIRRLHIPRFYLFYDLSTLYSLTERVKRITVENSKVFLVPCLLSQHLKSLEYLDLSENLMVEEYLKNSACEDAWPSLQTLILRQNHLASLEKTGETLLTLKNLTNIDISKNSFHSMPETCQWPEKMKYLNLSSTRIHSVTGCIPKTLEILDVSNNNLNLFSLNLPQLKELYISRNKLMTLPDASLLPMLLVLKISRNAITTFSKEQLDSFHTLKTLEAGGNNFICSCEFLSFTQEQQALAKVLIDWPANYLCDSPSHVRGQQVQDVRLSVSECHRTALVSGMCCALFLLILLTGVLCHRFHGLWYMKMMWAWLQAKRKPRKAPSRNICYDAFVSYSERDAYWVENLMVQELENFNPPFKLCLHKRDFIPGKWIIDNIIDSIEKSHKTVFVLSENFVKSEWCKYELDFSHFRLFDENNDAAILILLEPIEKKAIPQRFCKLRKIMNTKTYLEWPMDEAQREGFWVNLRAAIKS

| EC50 (average of all runs (Table 3)) [nM] | EC50 (average of all runs (Table 4)) [nM] | Compound |
| --- | --- | --- |
| > 1000 |  | CCCCCCNC(=O)[C@H](CCNC(=O)c1ccc(C(=O)N2C[C@@H](C(=O)N[C@H]3C[C@@H]3c3ccccc3)[C@H](C(=O)N[C@H]3C[C@@H]3c3ccccc3)C2)cc1)NC(=O)CCCCCC [Compound 017] |
| 51 to 350 |  | CCCCCCCCN1CCN(C(=O)c2ccc(C(=O)N3C[C@@H](C(=O)N[C@H]4C[C@@H]4c4ccccc4)[C@H](C(=O)N[C@H]4C[C@@H]4c4ccccc4)C3)cc2)C[C@@H]1C(=O)NCCCCCC [Compound 037, (3S,4S)-1-(4-((R)-3-(hexylcarbamoyl)-4-octylpiperazine-1-carbonyl)benzoyl)-N3,N4-bis((1S,2R)-2-phenylcyclopropyl)pyrrolidine-3,4-dicarboxamide formate] |
| 351 to 1000 |  | CCCCCCNC(=O)C1CN(C(=O)c2ccc(C(=O)N3C[C@@H](C(=O)N[C@H]4C[C@@H]4c4ccccc4)[C@H](C(=O)N[C@H]4C[C@@H]4c4ccccc4)C3)cc2)CCN1C(=O)CCc1ccc(F)cc1 (stereo partly drawn) [Compound 041, (3S,4S)-1-(4-(4-(3-(4-fluorophenyl)propanoyl)-3-(hexylcarbamoyl)piperazine-1-carbonyl)benzoyl)-N3,N4-bis((1S,2R)-2-phenylcyclopropyl)pyrrolidine-3,4-dicarboxamide] |
|  | 51 to 350 | O=C(N[C@H]1C[C@@H]1c1ccccc1)[C@@H]1CN(C(=O)c2ccc(C(=O)N3C[C@@H](C(=O)N[C@H]4C[C@@H]4c4ccccc4)[C@H](C(=O)N[C@@H]4C[C@H]4c4cccnc4)C3)cc2)C[C@H]1C(=O)N[C@H]1C[C@@H]1c1ccccc1 (single isomer, unassigned) [Compound 097, (3S,4S)—N3-((1S)-2-phenylcyclopropyl)-N4-(2-phenylcyclopropyl)-1-(4-((3S,4S)-3-(((1S,2R)-2-phenylcyclopropyl)carbamoyl)-4-(((1S*,2R*)-2-(pyridin-3-yl)cyclopropyl)carbamoyl)pyrrolidine-1-carbonyl)benzoyl)pyrrolidine-3,4-dicarboxamide] |

Continued, molecule first:

| Compound | EC50 (average of all runs (Table 3)) [nM] | EC50 (average of all runs (Table 4)) [nM] |
| --- | --- | --- |
| CCCCCCCCCCCCCCNC(=O)C1CCN(Cc2ccc(C(=O)N3C[C@@H](C(=O)N[C@H]4C[C@@H]4c4ccccc4)[C@H](C(=O)N[C@H]4C[C@@H]4c4ccccc4)C3)cc2)C1=O (stereo partly drawn) [Compound 142, (3S,4S)-1-(4-((2-oxo-3-(tetradecylcarbamoyl)pyrrolidin-1-yl)methyl)benzoyl)-N3,N4-bis((1S,2R)-2-phenylcyclopropyl)pyrrolidine-3,4-dicarboxamide] |  | > 1000 |
| CCCCCCCCN1CC(C(=O)NCCCCCC)CN(Cc2ccc(C(=O)N3C[C@@H](C(=O)N[C@H]4C[C@@H]4c4ccccc4)[C@H](C(=O)N[C@H]4C[C@@H]4c4ccccc4)C3)cc2)C1=O (stereo partly drawn) [Compound 178, (3S,4S)-1-(4-((5-(hexylcarbamoyl)-3-octyl-2-oxotetrahydropyrimidin-1 (2H)-yl)methyl)benzoyl)-N3,N4-bis((1S,2R)-2-phenylcyclopropyl)pyrrolidine-3,4-dicarboxamide] |  | 351 to 1000 |
| CCCCCCCNC(=O)[C@@H]1CN(C(=O)c2ccc(C(=O)N3C[C@@H](C(=O)N[C@H]4C[C@@H]4c4ccccc4)[C@H](C(=O)N[C@H]4C[C@@H]4c4ccccc4)C3)cc2)C[C@H]1OCCCCCCC (relative stereo) [Compound 062, (3S,4S)-1-(4-((3R*,4S*)-3-(heptylcarbamoyl)-4-(heptyloxy)pyrrolidine-1-carbonyl)benzoyl)-N3,N4-bis((1S,2R)-2-phenylcyclopropyl)pyrrolidine-3,4-dicarboxamide] | 51 to 350 |  |
| CCCCCCCCCC(=O)N[C@@H](Cc1nnc(-c2ccc(C(=O)N3C[C@@H](C(=O)N[C@H]4C[C@@H]4c4ccccc4)[C@H](C(=O)N[C@H]4C[C@@H]4c4ccccc4)C3)cc2)s1)C(=O)NCCCCCC [Compound 243, (3S,4S)-1-(4-(5-((S)-2-decanamido-3-(hexylamino)-3-oxopropyl)-1,3,4-thiadiazol-2-yl)benzoyl)-N3,N4-bis((1S,2R)-2-phenylcyclopropyl)pyrrolidine-3,4-dicarboxamide] |  | 0.1 to 50 |
